# Measurements from patent US8802597B2, “Herbicidal pyrimidines” (E I du Pont de Nemours and Company, priority 2003, dated 2014).
# Where two headings read alike, the source gives them in different places.
# Assays:
# Type in all cases: in vivo
# [1] = tested on: yellow nutsedge (Cyperus esculentus); assay: Test C pre/postemergence; settings: Cyperus; for pest or weed control at 31 g/ha: 31 g ai/ha; for pest or weed control at 62 g/ha: 62 g ai/ha; for pest or weed control at 125 g/ha: 125 g ai/ha; for pest or weed control at 250 g/ha: 250 g ai/ha
# Outline: (§1)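 Greenhouse pot test: seeds treated preemergence, or plants at 2–18 cm (1- to 4-leaf stage) treated postemergence, with compound in non-phytotoxic solvent plus surfactant. Visual rating versus untreated controls after 12–14 days, scale 0 (no effect) to 100 (complete control); dash means not tested.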
# [2] = tested on: goosegrass (Eleusine indica); assay: Test C pre/postemergence; settings: Eleusine indica; for pest or weed control at 31 g/ha: 31 g ai/ha; for pest or weed control at 62 g/ha: 62 g ai/ha; for pest or weed control at 125 g/ha: 125 g ai/ha; for pest or weed control at 250 g/ha: 250 g ai/ha
# Outline: as §1
# [3] = tested on: velvetleaf (Abutilon theophrasti); assay: Test C pre/postemergence; settings: Abutilon theophrasti; for pest or weed control at 31 g/ha: 31 g ai/ha; for pest or weed control at 62 g/ha: 62 g ai/ha; for pest or weed control at 125 g/ha: 125 g ai/ha; for pest or weed control at 250 g/ha: 250 g ai/ha
# Outline: as §1
# [4] = tested on: pigweed (Amaranthus retroflexus); assay: Test C pre/postemergence; settings: Amaranthus retroflexus; for pest or weed control at 31 g/ha: 31 g ai/ha; for pest or weed control at 62 g/ha: 62 g ai/ha; for pest or weed control at 125 g/ha: 125 g ai/ha; for pest or weed control at 250 g/ha: 250 g ai/ha
# Outline: as §1
# [5] = tested on: common ragweed (Ambrosia elatior); assay: Test C pre/postemergence; settings: Ambrosia artemisiifolia; for pest or weed control at 31 g/ha: 31 g ai/ha; for pest or weed control at 62 g/ha: 62 g ai/ha; for pest or weed control at 125 g/ha: 125 g ai/ha; for pest or weed control at 250 g/ha: 250 g ai/ha
# Outline: as §1
# [6] = tested on: bermudagrass (Cynodon dactylon); assay: Test C pre/postemergence; settings: Cynodon dactylon; for pest or weed control at 31 g/ha: 31 g ai/ha; for pest or weed control at 62 g/ha: 62 g ai/ha; for pest or weed control at 125 g/ha: 125 g ai/ha; for pest or weed control at 125 g/ha / pest or weed control at 250 g/ha: scale 0 to 100; for pest or weed control at 250 g/ha: 250 g ai/ha
# Outline: as §1
# [7] = tested on: woolly cupgrass (Eriochloa villosa); assay: Test C pre/postemergence; settings: Eriochloa villosa; for pest or weed control at 31 g/ha: 31 g ai/ha; for pest or weed control at 62 g/ha: 62 g ai/ha; for pest or weed control at 125 g/ha: 125 g ai/ha; for pest or weed control at 250 g/ha: 250 g ai/ha
# Outline: as §1
# [8] = tested on: chickweed (Stellaria media); assay: Test C postemergence; settings: Stellaria media, post-emergence
# Source text: Seeds or nutlets of plant species selected from bermudagrass (Cynodon dactylon), Surinam grass (Brachiaria decumbens), cocklebur (Xanthium strumarium), corn (Zea mays), crabgrass (Digitaria sanguinalis), woolly cupgrass (Eriochloa villosa), giant foxtail (Setaria faberii), goosegrass (Eleusine indica), johnsongrass (Sorghum halepense), kochia (Kochia scoparia), lambsquarters (Chenopodium album), morningglory (Ipomoea coccinea), eastern black nightshade (Solanum ptycanthum), yellow nutsedge (Cyperus esculentus), pigweed (Amaranthus retroflexus), common ragweed (Ambrosia elatior), soybean (Glycine max), common (oilseed) sunflower (Helianthus annuus), and velvetleaf (Abutilon theophrasti) were planted and treated preemergence with test chemicals formulated in a non-phytotoxic solvent mixture which included a surfactant.
# At the same time, plants selected from these crop and weed species and also winter barley (Hordeum vulgare), blackgrass (Alopecurus myosuroides), canarygrass (Phalaris minor), chickweed (Stellaria media), downy brome (Bromus tectorum), green foxtail (Setaria viridis), Italian ryegrass (Lolium multiflorum), wheat (Triticum aestivum), wild oat (Avena fatua) and windgrass (Apera spica-venti) were treated with postemergence applications of some of the test chemicals formulated in the same manner. Plants ranged in height from 2 to 18 cm (1- to 4-leaf stage) for postemergence treatments. Plant species in the flooded paddy test consisted of rice (Oryza sativa), umbrella sedge (Cyperus difformis), duck salad (Heteranthera limosa) and barnyardgrass (Echinochloa crus-galli) grown to the 2-leaf stage for testing. Treated plants and controls were maintained in a greenhouse for 12 to 14 days, after which time all species were compared to controls and visually evaluated. Plant response ratings, summarized in Table C, are based on a scale of 0 to 100 where 0 is no effect and 100 is complete control. A dash (-) response means no test result.
# [9] = post-emergence, Postemergence, scale 0 to 100 (0 no effect, 100 complete control), read-out: Nutsedge, Yellow plant response rating
# [10] = pre-emergence, Preemergence, scale 0 to 100, 0 no effect, 100 complete control, read-out: Plant response rating, Nutsedge, Yellow
# [11] = pre-emergence, Preemergence, scale 0 to 100, read-out: Plant response rating, Nutsedge, Yellow
# [12] = post-emergence, Postemergence, scale 0 to 100 (0 no effect, 100 complete control), read-out: Goosegrass plant response rating
# [13] = pre-emergence, Preemergence, scale 0 to 100, 0 no effect, 100 complete control, read-out: Plant response rating, Goosegrass
# [14] = pre-emergence, Preemergence, scale 0 to 100, read-out: Plant response rating, Goosegrass
# [15] = post-emergence, Postemergence, scale 0 to 100 (0 no effect, 100 complete control), read-out: Velvetleaf plant response rating
# [16] = pre-emergence, Preemergence, scale 0 to 100, 0 no effect, 100 complete control, read-out: Plant response rating, Velvetleaf
# [17] = pre-emergence, Preemergence, scale 0 to 100, read-out: Plant response rating, Velvetleaf
# [18] = post-emergence, Postemergence, scale 0 to 100 (0 no effect, 100 complete control), read-out: Pigweed plant response rating
# [19] = pre-emergence, Preemergence, scale 0 to 100, 0 no effect, 100 complete control, read-out: Plant response rating, Pigweed
# [20] = pre-emergence, Preemergence, scale 0 to 100, read-out: Plant response rating, Pigweed
# [21] = post-emergence, Postemergence, scale 0 to 100 (0 no effect, 100 complete control), read-out: Ragweed plant response rating
# [22] = pre-emergence, Preemergence, scale 0 to 100, 0 no effect, 100 complete control, read-out: Plant response rating, Ragweed
# [23] = pre-emergence, Preemergence, scale 0 to 100, read-out: Plant response rating, Ragweed
# [24] = post-emergence, Postemergence, read-out: Plant response rating, Bermudagrass
# [25] = pre-emergence, Preemergence, scale 0 to 100, 0 no effect, 100 complete control, read-out: Plant response rating, Bermudagrass
# [26] = pre-emergence, Preemergence, read-out: Plant response rating, Bermudagrass
# [27] = post-emergence, Postemergence, scale 0 to 100 (0 no effect, 100 complete control), read-out: Cupgrass, Woolly plant response rating
# [28] = pre-emergence, Preemergence, scale 0 to 100, 0 no effect, 100 complete control, read-out: Plant response rating, Cupgrass, Woolly
# [29] = pre-emergence, Preemergence, scale 0 to 100, read-out: Plant response rating, Cupgrass, Woolly
compound,measurement,setting,value
"COC(=O)c1nc(C2CC2)nc(N)c1Cl [Compound 9, methyl 6-amino-5-chloro-2-cyclopropyl-4-pyrimidinecarboxylate]",pest or weed control at 31 g/ha,"[1]; post-emergence, Postemergence, read-out: Plant response rating (scale of 0 to 100), Nutsedge, Yellow",0%
same,pest or weed control at 62 g/ha,[1]; [9],0%
same,pest or weed control at 125 g/ha,[1]; [9],0%
same,pest or weed control at 250 g/ha,"[1]; post-emergence, Postemergence, scale 0 to 100, read-out: Plant response rating, Nutsedge, Yellow",0%
same,pest or weed control at 31 g/ha,[1]; [10],20%
same,pest or weed control at 62 g/ha,[1]; [10],100%
same,pest or weed control at 125 g/ha,[1]; [11],100%
same,pest or weed control at 250 g/ha,[1]; [11],100%
same,pest or weed control at 31 g/ha,"[2]; post-emergence, Postemergence, read-out: Plant response rating (scale of 0 to 100), Goosegrass",0%
same,pest or weed control at 62 g/ha,[2]; [12],0%
same,pest or weed control at 125 g/ha,[2]; [12],40%
same,pest or weed control at 250 g/ha,"[2]; post-emergence, Postemergence, scale 0 to 100, read-out: Plant response rating, Goosegrass",45%
same,pest or weed control at 31 g/ha,[2]; [13],0%
same,pest or weed control at 62 g/ha,[2]; [13],0%
same,pest or weed control at 125 g/ha,[2]; [14],20%
same,pest or weed control at 250 g/ha,[2]; [14],50%
same,pest or weed control at 31 g/ha,"[3]; post-emergence, Postemergence, read-out: Plant response rating (scale of 0 to 100), Velvetleaf",0%
same,pest or weed control at 62 g/ha,[3]; [15],75%
same,pest or weed control at 125 g/ha,[3]; [15],80%
same,pest or weed control at 250 g/ha,"[3]; post-emergence, Postemergence, scale 0 to 100, read-out: Plant response rating, Velvetleaf",95%
same,pest or weed control at 31 g/ha,[3]; [16],70%
same,pest or weed control at 62 g/ha,[3]; [16],95%
same,pest or weed control at 125 g/ha,[3]; [17],100%
same,pest or weed control at 250 g/ha,[3]; [17],100%
same,pest or weed control at 31 g/ha,"[4]; post-emergence, Postemergence, read-out: Plant response rating (scale of 0 to 100), Pigweed",55%
same,pest or weed control at 62 g/ha,[4]; [18],70%
same,pest or weed control at 125 g/ha,[4]; [18],100%
same,pest or weed control at 250 g/ha,"[4]; post-emergence, Postemergence, scale 0 to 100, read-out: Plant response rating, Pigweed",100%
same,pest or weed control at 31 g/ha,[4]; [19],95%
same,pest or weed control at 62 g/ha,[4]; [19],95%
same,pest or weed control at 125 g/ha,[4]; [20],100%
same,pest or weed control at 250 g/ha,[4]; [20],100%
same,pest or weed control at 31 g/ha,"[5]; post-emergence, Postemergence, read-out: Plant response rating (scale of 0 to 100), Ragweed",70%
same,pest or weed control at 62 g/ha,[5]; [21],80%
same,pest or weed control at 125 g/ha,[5]; [21],95%
same,pest or weed control at 250 g/ha,"[5]; post-emergence, Postemergence, scale 0 to 100, read-out: Plant response rating, Ragweed",100%
same,pest or weed control at 31 g/ha,[5]; [22],100%
same,pest or weed control at 62 g/ha,[5]; [22],100%
same,pest or weed control at 125 g/ha,[5]; [23],100%
same,pest or weed control at 250 g/ha,[5]; [23],100%
same,pest or weed control at 31 g/ha,"[6]; post-emergence, Postemergence, read-out: Plant response rating (scale of 0 to 100), Bermudagrass",60%
same,pest or weed control at 62 g/ha,"[6]; post-emergence, Postemergence, scale 0 to 100 (0 no effect, 100 complete control), read-out: Bermudagrass plant response rating",65%
same,pest or weed control at 125 g/ha,[6]; [24],70%
same,pest or weed control at 250 g/ha,[6]; [24],80%
same,pest or weed control at 31 g/ha,[6]; [25],100%
same,pest or weed control at 62 g/ha,[6]; [25],100%
same,pest or weed control at 125 g/ha,[6]; [26],100%
same,pest or weed control at 250 g/ha,[6]; [26],100%
same,pest or weed control at 31 g/ha,"[7]; post-emergence, Postemergence, read-out: Plant response rating (scale of 0 to 100), Cupgrass, Woolly",40%
same,pest or weed control at 62 g/ha,[7]; [27],60%
same,pest or weed control at 125 g/ha,[7]; [27],70%
same,pest or weed control at 250 g/ha,"[7]; post-emergence, Postemergence, scale 0 to 100, read-out: Plant response rating, Cupgrass, Woolly",85%
same,pest or weed control at 31 g/ha,[7]; [28],0%
same,pest or weed control at 62 g/ha,[7]; [28],90%
same,pest or weed control at 125 g/ha,[7]; [29],95%
same,pest or weed control at 250 g/ha,[7]; [29],100%
same,pest or weed control at 31 g/ha,"[8]; 31 g ai/ha, read-out: Plant response rating (scale of 0 to 100), Chickweed",15%
same,pest or weed control at 62 g/ha,"[8]; 62 g ai/ha, scale 0 to 100 (0 no effect, 100 complete control), read-out: Chickweed plant response rating",85%
same,pest or weed control at 125 g/ha,"[8]; 125 g ai/ha, scale 0 to 100, read-out: Plant response rating, Chickweed",100%
same,pest or weed control at 250 g/ha,"[8]; 250 g ai/ha, scale 0 to 100, read-out: Plant response rating, Chickweed",100%
